What was measured:
Calcitonin receptor = biological target: T1, Calcitonin receptor (Homo sapiens, UniProt P30988); assay type: cell membranes, Membrane; conditions: t47d; note: in other assays of this panel Not Active means under 50% inhibition at 10 µM
T1 sequence (P30988 whole entry): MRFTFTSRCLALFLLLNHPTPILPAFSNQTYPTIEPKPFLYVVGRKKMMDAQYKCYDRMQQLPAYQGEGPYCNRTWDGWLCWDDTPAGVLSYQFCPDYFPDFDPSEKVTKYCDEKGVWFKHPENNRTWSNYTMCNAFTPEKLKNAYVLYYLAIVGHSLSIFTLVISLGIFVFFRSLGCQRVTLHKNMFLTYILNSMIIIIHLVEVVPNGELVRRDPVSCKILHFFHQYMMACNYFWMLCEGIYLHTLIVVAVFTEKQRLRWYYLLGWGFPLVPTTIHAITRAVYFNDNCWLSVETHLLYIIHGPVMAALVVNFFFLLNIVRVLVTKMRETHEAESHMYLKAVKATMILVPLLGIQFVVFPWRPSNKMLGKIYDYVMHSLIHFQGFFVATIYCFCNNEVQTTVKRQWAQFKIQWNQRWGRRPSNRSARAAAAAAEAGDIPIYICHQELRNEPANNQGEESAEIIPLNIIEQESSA

[1] = biological target: T2, C-X-C chemokine receptor type 2 (Homo sapiens, UniProt P25025); assay type: cell membranes, Membrane; conditions: cho-k1; note: in other assays of this panel Not Active means under 50% inhibition at 10 µM
T2 sequence (P25025 whole entry): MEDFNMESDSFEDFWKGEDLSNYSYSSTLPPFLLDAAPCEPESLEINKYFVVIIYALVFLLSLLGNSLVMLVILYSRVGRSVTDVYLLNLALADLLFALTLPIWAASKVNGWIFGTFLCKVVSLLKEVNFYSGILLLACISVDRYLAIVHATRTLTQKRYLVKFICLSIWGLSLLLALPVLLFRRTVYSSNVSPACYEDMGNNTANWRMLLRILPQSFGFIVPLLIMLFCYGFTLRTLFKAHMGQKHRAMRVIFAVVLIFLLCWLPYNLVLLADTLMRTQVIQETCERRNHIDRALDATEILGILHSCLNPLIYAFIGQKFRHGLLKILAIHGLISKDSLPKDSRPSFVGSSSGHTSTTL

Cytochrome P450 2D6 = Cytochrome P450 2D6 (Homo sapiens, UniProt P10635); conditions: bti-tn-5b1-4; note: in other assays of this panel Not Active means under 50% inhibition at 10 µM
Chain of Cytochrome P450 2D6 (P10635 whole entry): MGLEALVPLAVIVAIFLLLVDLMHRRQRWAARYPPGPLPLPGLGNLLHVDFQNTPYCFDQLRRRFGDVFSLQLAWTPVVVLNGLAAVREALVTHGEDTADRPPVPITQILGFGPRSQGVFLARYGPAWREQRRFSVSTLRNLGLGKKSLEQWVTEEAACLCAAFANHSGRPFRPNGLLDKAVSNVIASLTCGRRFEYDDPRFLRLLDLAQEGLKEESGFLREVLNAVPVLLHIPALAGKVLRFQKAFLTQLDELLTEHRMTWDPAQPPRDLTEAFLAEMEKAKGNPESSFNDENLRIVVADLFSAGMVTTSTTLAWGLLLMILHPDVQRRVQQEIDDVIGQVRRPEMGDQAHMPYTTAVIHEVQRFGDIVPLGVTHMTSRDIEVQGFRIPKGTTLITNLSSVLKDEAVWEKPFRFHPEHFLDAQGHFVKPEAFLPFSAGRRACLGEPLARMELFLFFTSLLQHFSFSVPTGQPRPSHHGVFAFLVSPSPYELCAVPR

Cytochrome P450 2C19 = Cytochrome P450 2C19 (Homo sapiens, UniProt P33261); conditions: bti-tn-5b1-4; note: in other assays of this panel Not Active means under 50% inhibition at 10 µM
[2] = biological target: Mitogen-activated protein kinase 1 (Homo sapiens, UniProt P28482); assay: DRUGMATRIX: Protein Serine/Threonine Kinase, ERK2 enzyme inhibition (substrate: Myelin Basic Protein); design: species or system Escherichia coli; conditions: Not Active = under 50% inhibition at 10 µM
Chain of Mitogen-activated protein kinase 1 (P28482 whole entry): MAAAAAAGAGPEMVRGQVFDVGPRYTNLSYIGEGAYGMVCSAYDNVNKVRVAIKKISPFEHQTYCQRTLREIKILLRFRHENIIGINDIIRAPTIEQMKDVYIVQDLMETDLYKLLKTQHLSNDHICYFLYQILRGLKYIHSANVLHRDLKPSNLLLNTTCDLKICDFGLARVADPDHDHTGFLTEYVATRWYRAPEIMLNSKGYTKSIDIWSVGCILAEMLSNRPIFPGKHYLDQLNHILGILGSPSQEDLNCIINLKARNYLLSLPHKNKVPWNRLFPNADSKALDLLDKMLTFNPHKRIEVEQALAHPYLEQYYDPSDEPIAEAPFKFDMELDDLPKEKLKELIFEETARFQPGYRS

[3] = biological target: Sodium-dependent noradrenaline transporter (Homo sapiens, UniProt P23975); assay: DRUGMATRIX: Norepinephrine Transporter radioligand binding (ligand: [125I] RTI-55); assay type: cell membranes, MDCK, Membrane; conditions: mdck; Not Active = under 50% inhibition at 10 µM
Chain of Sodium-dependent noradrenaline transporter (P23975 whole entry): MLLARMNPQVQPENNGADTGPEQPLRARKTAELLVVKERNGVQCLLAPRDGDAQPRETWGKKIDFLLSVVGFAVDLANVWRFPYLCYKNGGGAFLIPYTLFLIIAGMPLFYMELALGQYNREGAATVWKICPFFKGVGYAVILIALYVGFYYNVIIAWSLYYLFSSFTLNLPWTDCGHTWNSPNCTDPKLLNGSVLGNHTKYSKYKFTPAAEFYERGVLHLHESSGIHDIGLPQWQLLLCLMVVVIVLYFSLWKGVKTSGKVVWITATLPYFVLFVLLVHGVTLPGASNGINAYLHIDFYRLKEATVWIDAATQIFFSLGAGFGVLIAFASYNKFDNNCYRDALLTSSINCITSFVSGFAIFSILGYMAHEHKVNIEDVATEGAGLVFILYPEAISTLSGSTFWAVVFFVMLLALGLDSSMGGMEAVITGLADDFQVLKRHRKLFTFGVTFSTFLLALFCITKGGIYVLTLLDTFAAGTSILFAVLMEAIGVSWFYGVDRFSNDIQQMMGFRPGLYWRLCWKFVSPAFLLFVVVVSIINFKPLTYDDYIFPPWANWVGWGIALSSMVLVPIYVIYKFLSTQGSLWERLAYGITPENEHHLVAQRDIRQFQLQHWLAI

Melanocortin receptor 3 = Melanocortin receptor 3 (Homo sapiens, UniProt P41968); assay type: cell membranes, Membrane; conditions: hek293; note: in other assays of this panel Not Active means under 50% inhibition at 10 µM
Chain of Melanocortin receptor 3 (P41968 whole entry): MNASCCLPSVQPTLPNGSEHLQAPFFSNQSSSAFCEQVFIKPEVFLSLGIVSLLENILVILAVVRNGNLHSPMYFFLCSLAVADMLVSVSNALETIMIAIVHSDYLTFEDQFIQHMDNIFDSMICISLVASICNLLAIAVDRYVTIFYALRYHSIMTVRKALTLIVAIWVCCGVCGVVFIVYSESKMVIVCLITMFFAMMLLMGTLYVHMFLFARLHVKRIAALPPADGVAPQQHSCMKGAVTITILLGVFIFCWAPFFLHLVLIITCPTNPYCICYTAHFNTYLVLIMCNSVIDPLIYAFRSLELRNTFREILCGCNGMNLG

D(3) dopamine receptor = D(3) dopamine receptor (Homo sapiens, UniProt P35462); assay: DRUGMATRIX: Dopamine D3 radioligand binding (ligand: [3H] Spiperone); assay type: cell membranes, CHO, Membrane; conditions: cho
[4] = biological target: Platelet-activating factor receptor (Homo sapiens, UniProt P25105); assay: biochemical; assay type: tissue-based; conditions: platelet; note: in other assays of this panel Not Active means under 50% inhibition at 10 µM
Chain of Platelet-activating factor receptor (P25105 whole entry): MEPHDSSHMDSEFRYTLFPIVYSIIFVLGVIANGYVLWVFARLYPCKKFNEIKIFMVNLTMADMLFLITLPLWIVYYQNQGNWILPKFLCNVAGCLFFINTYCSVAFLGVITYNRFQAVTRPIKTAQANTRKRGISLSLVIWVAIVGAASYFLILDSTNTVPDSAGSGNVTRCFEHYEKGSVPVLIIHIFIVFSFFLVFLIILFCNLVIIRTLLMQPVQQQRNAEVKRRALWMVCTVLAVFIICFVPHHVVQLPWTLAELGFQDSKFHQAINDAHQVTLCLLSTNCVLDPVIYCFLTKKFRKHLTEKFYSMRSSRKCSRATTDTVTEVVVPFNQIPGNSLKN

[5] = biological target: Sigma non-opioid intracellular receptor 1 (Homo sapiens, UniProt Q99720); assay: DRUGMATRIX: Sigma1 radioligand binding (ligand: [3H] Haloperidol); assay type: cell membranes, Jurkat, Membrane; conditions: jurkat; Not Active = under 50% inhibition at 10 µM
Chain of Sigma non-opioid intracellular receptor 1 (Q99720 whole entry): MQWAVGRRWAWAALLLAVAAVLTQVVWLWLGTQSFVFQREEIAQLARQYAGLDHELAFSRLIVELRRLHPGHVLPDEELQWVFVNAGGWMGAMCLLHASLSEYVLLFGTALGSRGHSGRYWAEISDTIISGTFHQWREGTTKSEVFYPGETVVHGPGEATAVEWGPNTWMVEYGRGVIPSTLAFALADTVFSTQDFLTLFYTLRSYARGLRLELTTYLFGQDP

[6] = DRUGMATRIX: GABAA, Chloride Channel, TBOB radioligand binding (ligand: [3H] TBOB); assay type: cell membranes, Rattus norvegicus, Wistar, Cerebral cortex, Membrane; conditions: Not Active = under 50% inhibition at 10 µM
Cytochrome P450 2E1 = Cytochrome P450 2E1 (Homo sapiens, UniProt P05181); conditions: bti-tn-5b1-4; note: in other assays of this panel Not Active means under 50% inhibition at 10 µM
Chain of Cytochrome P450 2E1 (P05181 whole entry): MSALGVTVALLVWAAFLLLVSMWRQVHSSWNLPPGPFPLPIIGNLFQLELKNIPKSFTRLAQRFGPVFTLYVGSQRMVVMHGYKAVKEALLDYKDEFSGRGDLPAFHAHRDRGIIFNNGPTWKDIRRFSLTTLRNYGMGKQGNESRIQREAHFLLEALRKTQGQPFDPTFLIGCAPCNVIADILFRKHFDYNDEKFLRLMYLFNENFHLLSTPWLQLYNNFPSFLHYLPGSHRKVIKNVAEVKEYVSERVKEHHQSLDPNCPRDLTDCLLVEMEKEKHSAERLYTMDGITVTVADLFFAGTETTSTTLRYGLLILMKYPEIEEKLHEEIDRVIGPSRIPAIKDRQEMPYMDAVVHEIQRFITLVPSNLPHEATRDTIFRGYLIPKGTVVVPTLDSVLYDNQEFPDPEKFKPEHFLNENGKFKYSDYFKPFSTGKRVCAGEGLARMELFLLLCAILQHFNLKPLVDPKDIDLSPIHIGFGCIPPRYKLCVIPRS

[7] = biological target: Voltage-gated inwardly rectifying potassium channel KCNH2 (Homo sapiens, UniProt Q12809); conditions: hek293; note: in other assays of this panel Not Active means under 50% inhibition at 10 µM
Chain of Voltage-gated inwardly rectifying potassium channel KCNH2 (Q12809 whole entry): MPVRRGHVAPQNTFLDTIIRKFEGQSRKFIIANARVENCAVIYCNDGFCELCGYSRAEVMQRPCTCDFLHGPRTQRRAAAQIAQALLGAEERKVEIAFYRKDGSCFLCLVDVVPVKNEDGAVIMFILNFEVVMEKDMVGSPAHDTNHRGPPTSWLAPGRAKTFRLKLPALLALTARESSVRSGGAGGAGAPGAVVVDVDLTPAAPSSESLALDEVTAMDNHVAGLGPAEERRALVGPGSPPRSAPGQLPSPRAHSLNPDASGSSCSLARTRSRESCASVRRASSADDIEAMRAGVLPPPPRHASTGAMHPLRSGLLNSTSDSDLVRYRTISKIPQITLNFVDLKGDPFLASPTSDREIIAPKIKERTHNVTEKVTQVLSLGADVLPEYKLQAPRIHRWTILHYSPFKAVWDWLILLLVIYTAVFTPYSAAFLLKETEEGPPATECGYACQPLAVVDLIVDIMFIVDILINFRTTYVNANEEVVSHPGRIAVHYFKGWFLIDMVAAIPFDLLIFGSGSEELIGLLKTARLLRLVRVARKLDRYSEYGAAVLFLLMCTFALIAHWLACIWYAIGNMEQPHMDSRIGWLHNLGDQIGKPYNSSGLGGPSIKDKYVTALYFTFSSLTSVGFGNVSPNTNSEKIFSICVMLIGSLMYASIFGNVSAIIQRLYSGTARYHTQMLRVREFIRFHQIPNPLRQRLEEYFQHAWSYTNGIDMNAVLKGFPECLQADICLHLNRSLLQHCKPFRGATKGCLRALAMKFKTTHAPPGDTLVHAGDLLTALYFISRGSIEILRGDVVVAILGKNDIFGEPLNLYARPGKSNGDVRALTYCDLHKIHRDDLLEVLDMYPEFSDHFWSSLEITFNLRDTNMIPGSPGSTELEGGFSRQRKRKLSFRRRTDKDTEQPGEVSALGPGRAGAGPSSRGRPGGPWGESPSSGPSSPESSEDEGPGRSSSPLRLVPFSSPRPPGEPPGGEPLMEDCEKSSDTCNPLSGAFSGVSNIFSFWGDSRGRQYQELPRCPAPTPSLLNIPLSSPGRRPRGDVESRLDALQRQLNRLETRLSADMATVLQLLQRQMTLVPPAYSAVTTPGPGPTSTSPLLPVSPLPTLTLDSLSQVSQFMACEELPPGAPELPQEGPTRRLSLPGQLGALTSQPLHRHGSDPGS

[8] = biological target: Mitogen-activated protein kinase 14 (Homo sapiens, UniProt Q16539); design: species or system Escherichia coli
Chain of Mitogen-activated protein kinase 14 (Q16539 whole entry): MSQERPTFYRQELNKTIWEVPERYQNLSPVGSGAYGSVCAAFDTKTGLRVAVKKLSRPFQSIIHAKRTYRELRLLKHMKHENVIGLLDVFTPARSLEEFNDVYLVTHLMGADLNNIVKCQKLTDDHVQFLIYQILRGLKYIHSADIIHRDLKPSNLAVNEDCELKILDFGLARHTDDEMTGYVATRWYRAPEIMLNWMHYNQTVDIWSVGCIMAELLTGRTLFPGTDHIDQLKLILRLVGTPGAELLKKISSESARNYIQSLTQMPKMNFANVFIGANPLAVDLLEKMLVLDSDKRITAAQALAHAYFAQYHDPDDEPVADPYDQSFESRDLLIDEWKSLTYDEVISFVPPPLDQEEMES

Cytochrome P450 2C9 = Cytochrome P450 2C9 (Homo sapiens, UniProt P11712); conditions: bti-tn-5b1-4; note: in other assays of this panel Not Active means under 50% inhibition at 10 µM
Chain of Cytochrome P450 2C9 (P11712 whole entry): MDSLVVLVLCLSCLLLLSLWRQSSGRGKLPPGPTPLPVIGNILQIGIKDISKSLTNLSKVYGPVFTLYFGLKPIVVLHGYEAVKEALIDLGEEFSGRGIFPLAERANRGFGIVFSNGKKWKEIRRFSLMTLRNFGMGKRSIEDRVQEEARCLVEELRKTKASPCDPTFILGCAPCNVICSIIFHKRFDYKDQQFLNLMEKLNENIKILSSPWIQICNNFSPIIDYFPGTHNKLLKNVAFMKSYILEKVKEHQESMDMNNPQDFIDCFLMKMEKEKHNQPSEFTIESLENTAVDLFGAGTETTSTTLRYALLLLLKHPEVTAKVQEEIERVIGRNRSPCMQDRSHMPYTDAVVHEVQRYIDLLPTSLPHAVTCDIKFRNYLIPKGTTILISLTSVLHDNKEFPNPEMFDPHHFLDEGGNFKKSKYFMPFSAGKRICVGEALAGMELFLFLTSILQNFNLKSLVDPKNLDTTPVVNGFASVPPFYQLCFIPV

Cytochrome P450 1A2 = biological target: T3, Cytochrome P450 1A2 (Homo sapiens, UniProt P05177); conditions: bti-tn-5b1-4; note: in other assays of this panel Not Active means under 50% inhibition at 10 µM
T3 sequence (P05177 whole entry): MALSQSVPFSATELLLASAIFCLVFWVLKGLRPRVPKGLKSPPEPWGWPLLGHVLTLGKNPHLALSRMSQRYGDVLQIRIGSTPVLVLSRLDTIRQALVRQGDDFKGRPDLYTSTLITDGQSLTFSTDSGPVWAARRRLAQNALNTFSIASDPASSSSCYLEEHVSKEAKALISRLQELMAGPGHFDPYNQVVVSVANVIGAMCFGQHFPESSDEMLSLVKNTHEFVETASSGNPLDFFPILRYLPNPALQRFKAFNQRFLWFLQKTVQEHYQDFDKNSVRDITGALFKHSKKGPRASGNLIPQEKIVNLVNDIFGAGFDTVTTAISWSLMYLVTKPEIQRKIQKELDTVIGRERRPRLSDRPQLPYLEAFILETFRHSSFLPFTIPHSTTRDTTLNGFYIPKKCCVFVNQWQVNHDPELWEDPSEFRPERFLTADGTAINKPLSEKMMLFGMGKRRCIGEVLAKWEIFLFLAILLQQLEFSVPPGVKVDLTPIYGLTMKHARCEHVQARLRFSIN

CC(C)(C)NC(=O)[C@@H]1CN(Cc2cccnc2)CCN1C[C@@H](O)C[C@@H](Cc1ccccc1)C(=O)N[C@H]1c2ccccc2C[C@H]1O.O
Not Active: IC50 (Calcitonin receptor) | IC50 [1] | IC50 (Cytochrome P450 2D6) | Ki (Cytochrome P450 2D6) | IC50 (Cytochrome P450 2C19) | Ki (Cytochrome P450 2C19) | IC50 [2] | IC50 [3] | IC50 (Melanocortin receptor 3) | IC50 (D(3) dopamine receptor) | IC50 [4] | IC50 [5] | IC50 [6] | Ki [6] | IC50 (Cytochrome P450 2E1) | Ki (Cytochrome P450 2E1) | IC50 [7] | Ki [7] | IC50 [8] | IC50 (Cytochrome P450 2C9) | Ki (Cytochrome P450 2C9) | IC50 (Cytochrome P450 1A2) | Ki (Cytochrome P450 1A2)

COS(C)(=O)=O [METHANESULFONIC ACID METHYL ESTER]
Not Active: IC50 (Calcitonin receptor) | IC50 [1] | IC50 (Cytochrome P450 2D6) | Ki (Cytochrome P450 2D6) | IC50 (Cytochrome P450 2C19) | Ki (Cytochrome P450 2C19) | IC50 [2] | IC50 [3] | IC50 (Melanocortin receptor 3) | IC50 (D(3) dopamine receptor) | IC50 [4] | IC50 [5] | IC50 [6] | Ki [6] | IC50 (Cytochrome P450 2E1) | Ki (Cytochrome P450 2E1) | IC50 [7] | Ki [7] | IC50 [8] | IC50 (Cytochrome P450 2C9) | Ki (Cytochrome P450 2C9) | IC50 (Cytochrome P450 1A2) | Ki (Cytochrome P450 1A2)

C[C@](N)(Cc1ccc(O)cc1)C(=O)O [METYROSINE]
Not Active: IC50 (Calcitonin receptor) | IC50 [1] | IC50 (Cytochrome P450 2D6) | Ki (Cytochrome P450 2D6) | IC50 (Cytochrome P450 2C19) | Ki (Cytochrome P450 2C19) | IC50 [2] | IC50 [3] | IC50 (Melanocortin receptor 3) | IC50 (D(3) dopamine receptor) | IC50 [4] | IC50 [5] | IC50 [6] | Ki [6] | IC50 (Cytochrome P450 2E1) | Ki (Cytochrome P450 2E1) | IC50 [7] | Ki [7] | IC50 [8] | IC50 (Cytochrome P450 2C9) | Ki (Cytochrome P450 2C9) | IC50 (Cytochrome P450 1A2) | Ki (Cytochrome P450 1A2)

CC[C@H]1OC(=O)[C@H](C)[C@@H](O[C@H]2C[C@@](C)(OC)[C@@H](O)[C@H](C)O2)[C@H](C)[C@@H](O[C@@H]2O[C@H](C)C[C@H](N(C)C)[C@H]2O)[C@](C)(O)C[C@@H](C)/C(=N\OCOCCOC)[C@H](C)[C@@H](O)[C@]1(C)O [ROXITHROMYCIN]
Not Active: IC50 (Calcitonin receptor) | IC50 [1] | IC50 (Cytochrome P450 2D6) | Ki (Cytochrome P450 2D6) | IC50 (Cytochrome P450 2C19) | Ki (Cytochrome P450 2C19) | IC50 [2] | IC50 [3] | IC50 (Melanocortin receptor 3) | IC50 (D(3) dopamine receptor) | IC50 [4] | IC50 [5] | IC50 [6] | Ki [6] | IC50 (Cytochrome P450 2E1) | Ki (Cytochrome P450 2E1) | IC50 [7] | Ki [7] | IC50 [8] | IC50 (Cytochrome P450 2C9) | Ki (Cytochrome P450 2C9) | IC50 (Cytochrome P450 1A2) | Ki (Cytochrome P450 1A2)

CC(C)(C)NCC(O)c1cc(O)cc(O)c1 (stereo not given) [TERBUTALINE]
Not Active: IC50 (Calcitonin receptor) | IC50 [1] | IC50 (Cytochrome P450 2D6) | Ki (Cytochrome P450 2D6) | IC50 (Cytochrome P450 2C19) | Ki (Cytochrome P450 2C19) | IC50 [2] | IC50 [3] | IC50 (Melanocortin receptor 3) | IC50 (D(3) dopamine receptor) | IC50 [4] | IC50 [5] | IC50 [6] | Ki [6] | IC50 (Cytochrome P450 2E1) | Ki (Cytochrome P450 2E1) | IC50 [7] | Ki [7] | IC50 [8] | IC50 (Cytochrome P450 2C9) | Ki (Cytochrome P450 2C9) | IC50 (Cytochrome P450 1A2) | Ki (Cytochrome P450 1A2)

From ChEMBL document CHEMBL1909046, “DrugMatrix in vitro pharmacology data”
